Measurements taken from patent US5776433A, “Flunisolide aerosol formulations” (Minnesota Mining and Manufacturing Company, priority 1995, dated 1998).

Type: physicochemical
Excerpt: This intermediate level of solubility can lead to particle size increase of the drug in a suspension formulation. It is well known that particles having a diameter of greater than about 10 μm are not suitable for inhalation to the lung. Therefore particle size increase can threaten the utility of a pharmaceutical aerosol formulation.

- solubility in 1:1 blend of HFA 134a and HFA 227: about 0.007 % by weight
- solubility in HFA 134a: about 0.006 % by weight
- solubility in HFA 227: about 0.004 % by weight
SMILES: CC1(C)O[C@@H]2C[C@H]3[C@@H]4C[C@H](F)C5=CC(=O)C=C[C@]5(C)[C@H]4[C@@H](O)C[C@]3(C)[C@]2(C(=O)CO)O1 [flunisolide hemihydrate, 6α-fluoro-11β, 16α, 17,21-tetrahydroxypregna-1,4-diene-3,20-dione cyclic 16,17-acetal with acetone]
